Each structure is given as a SMILES string.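 Cultured in 96-well plates, cells were exposed to test compound for 48 hours across five concentrations. Here, GI50 denotes the concentration required for 50% inhibition of growth.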 The source made the active and inactive calls. No stated cut-off is given here; in the data, active = GI50 up to about 1.1 µM and inactive = higher.

Broadly, the GI50 is the concentration that inhibits growth by half.

Test systems include SF-268; SN12C; SF-295; NCI-H23; UACC-257; MDA-N; HOP-92; HCC 2998; SNB-75; HL-60; COLO 205; SK-MEL-28; HT-29; HCT-15; PC-3; RXF 393; OVCAR-8; NCI-H522; Malme-3M; SR.
Holding throughout (assay): DTP human tumour cell line panel, 48 h

For `COC(=O)c1ccccc1C1CN=NC12Cc1cc3c(cc1C2=O)CCC3` (stereo unspecified), the GI50 was 62.4 µM (inactive) in the assay on SF-268; 92.9 µM (inactive) with SN12C; 54.2 µM (inactive) with SF-295; 33.3 µM (inactive) with NCI-H23; 40.6 µM (inactive) in the assay on UACC-257; 40.7 µM (inactive) with MDA-N. For the same compound, the GI50 was 30.7 µM (inactive) in the assay with HOP-92; 47.1 µM (inactive) in the assay on HCC 2998; 61.4 µM (inactive) in the assay on SNB-75; 21.4 µM (inactive) in the assay with HL-60; 41.9 µM (inactive) with COLO 205; > 100 µM (inactive) in the assay on SK-MEL-28. The GI50 is 87.5 µM (inactive) with HT-29; more than 100 µM in the assay with HCT-15; 45.5 µM (inactive) in the assay with PC-3; > 100 µM (inactive) in the assay with RXF 393; 48.2 µM (inactive) in the assay with OVCAR-8; 32.9 µM (inactive) with NCI-H522. In the assay on Malme-3M, the GI50 was 95.9 µM (inactive).

As for `CN(C)c1ccc(/C=C(\NC(=O)c2ccccc2)c2nc3ccccc3c(=O)o2)cc1`, the GI50 with SF-268 was > 100 µM (inactive); in the assay on SN12C, > 100 µM (inactive); in the assay on SF-295 it was > 100 µM (inactive); with NCI-H23, > 100 µM (inactive); in the assay with UACC-257, > 100 µM (inactive); in the assay with MDA-N, 83.4 µM (inactive). The GI50 with HOP-92, in the assay on HCC 2998, in the assay on SNB-75, with HL-60, with COLO 205 and in the assay on SK-MEL-28 was > 100 µM (inactive) in each case. Further, the GI50 is > 100 µM (inactive) in the assay with HT-29; more than 100 µM with HCT-15; > 100 µM (inactive) with PC-3; > 100 µM (inactive) in the assay with RXF 393; 43.4 µM (inactive) with OVCAR-8; 46.7 µM (inactive) in the assay on NCI-H522. The GI50 in the assay with Malme-3M is > 100 µM (inactive).

For the compound `Cn1c(=O)c2c(nc3n2CC(C(=O)O)N3)n(C)c1=O` (stereo unspecified), the GI50 with SF-268, with SN12C, in the assay with SF-295, in the assay on NCI-H23, in the assay on UACC-257 and with MDA-N was > 100 µM (inactive) each time. Also, the GI50 in the assay with HOP-92, with HCC 2998, in the assay with SNB-75, with HL-60, with COLO 205 and with SK-MEL-28 was > 100 µM (inactive) throughout. Also, the GI50 was > 100 µM (inactive) with HT-29; more than 100 µM with HCT-15; > 100 µM (inactive) in the assay with PC-3; > 100 µM (inactive) in the assay on RXF 393; > 100 µM (inactive) in the assay on OVCAR-8; > 100 µM (inactive) with NCI-H522. Also, the GI50 with Malme-3M was > 100 µM (inactive).

With `O=C(Nc1ccccc1F)c1cc2ccc(O)cc2o/c1=N\c1cccc(F)c1`, the GI50 is 19.2 µM (inactive) in the assay on SF-268; 4.3 µM (inactive) in the assay on SF-295; 2.16 µM (inactive) in the assay with NCI-H23; 19.5 µM (inactive) in the assay on UACC-257; 14.6 µM (inactive) in the assay with MDA-N; 15.3 µM (inactive) in the assay with HCC 2998. Besides, the GI50 is 5.28 µM (inactive) with HL-60; 29.7 µM (inactive) in the assay on COLO 205; 12.3 µM (inactive) in the assay on SK-MEL-28; 37.5 µM (inactive) with HT-29; 10.2 µM with HCT-15; 18.6 µM (inactive) in the assay with PC-3. The GI50 with SR was 12.9 µM (inactive); with OVCAR-8, 9.48 µM (inactive); in the assay on NCI-H522, 2.37 µM (inactive); in the assay with Malme-3M, 21.6 µM (inactive).

For `O=C1CC2(CCC(O)(c3ccc(Cl)cc3)C(C(=O)c3ccc(Cl)cc3)C2)C(=O)c2ccccc2N1` (stereo unspecified), the GI50 is 3.1 µM (inactive) with SF-268; 5.68 µM (inactive) with SN12C; 6.47 µM (inactive) in the assay with SF-295; 14.6 µM (inactive) in the assay on NCI-H23; 12.2 µM (inactive) with UACC-257; 15.2 µM (inactive) in the assay with MDA-N. The GI50 with HOP-92 was 0.794 µM (active); with HCC 2998, 35.5 µM (inactive); with SNB-75 it was 0.146 µM (active); with HL-60 it was 11 µM (inactive); in the assay on COLO 205 it was 5.74 µM (inactive); in the assay on SK-MEL-28 it was 4.53 µM (inactive). The GI50 with HT-29 was 3.89 µM (inactive); in the assay with HCT-15, more than 42.7 µM; with PC-3 it was > 100 µM (inactive); with RXF 393 it was 4.89 µM (inactive); in the assay with OVCAR-8 it was 14.7 µM (inactive); in the assay with NCI-H522 it was 11.7 µM (inactive). Further, the GI50 with Malme-3M is > 28.1 µM (inactive).

Turning to `N=C(N)N/N=C/c1cc(Cl)cc(Cl)c1O`, the GI50 in the assay with SF-268 was 45.9 µM (inactive); with SN12C, 49.3 µM (inactive); in the assay on SF-295 it was 58.1 µM (inactive); in the assay with NCI-H23, 56.5 µM (inactive); in the assay with UACC-257, 45.3 µM (inactive); with MDA-N, 71.1 µM (inactive). The GI50 was 65 µM (inactive) with HOP-92; 15.8 µM (inactive) in the assay with HCC 2998; 30.2 µM (inactive) in the assay on SNB-75; 33.2 µM (inactive) in the assay with HL-60; 34.2 µM (inactive) with COLO 205; 86.9 µM (inactive) with SK-MEL-28. Also, the GI50 in the assay with HT-29 is 62.1 µM (inactive); with HCT-15, 26.1 µM; in the assay with PC-3, 36.7 µM (inactive); in the assay on RXF 393, 58.5 µM (inactive); with OVCAR-8 it was > 100 µM (inactive); in the assay with NCI-H522, 56.5 µM (inactive). For the same compound, the GI50 in the assay on Malme-3M was 42.3 µM (inactive).

On to `O=C(O)C1OC1(c1cccc(Cl)c1)c1ccccc1Cl` (stereo unspecified), for which the GI50 is 20.6 µM (inactive) with SF-268; 23 µM (inactive) with SN12C; 25.7 µM (inactive) in the assay on SF-295; 20.8 µM (inactive) in the assay on NCI-H23; 26.6 µM (inactive) in the assay with UACC-257; 23.6 µM (inactive) in the assay with MDA-N. Also, the GI50 was 23.1 µM (inactive) with HOP-92; 25.9 µM (inactive) in the assay with HCC 2998; 19.9 µM (inactive) with SNB-75; 17.2 µM (inactive) with HL-60; 53.3 µM (inactive) in the assay with COLO 205; 22.1 µM (inactive) with SK-MEL-28. For the same compound, the GI50 in the assay with HT-29 was 25.9 µM (inactive); with HCT-15, 6.76 µM; with PC-3, 21.8 µM (inactive); in the assay with RXF 393, 27.4 µM (inactive); in the assay with OVCAR-8 it was 32.1 µM (inactive); with NCI-H522 it was 24.5 µM (inactive). Also, the GI50 in the assay on Malme-3M is 19.7 µM (inactive).

For `O=c1c2ccccc2nc(N/N=C/c2ccc([N+](=O)[O-])cc2)n1-c1ccccc1`, the GI50 in the assay with SF-268 was 12.1 µM (inactive); in the assay on SN12C, 91 µM (inactive); with SF-295, 4.35 µM (inactive); with NCI-H23 it was 61.1 µM (inactive); with UACC-257, 15.6 µM (inactive); with MDA-N, 57.5 µM (inactive). Besides, the GI50 in the assay on SNB-75 is 7.93 µM (inactive); in the assay with HL-60, > 100 µM (inactive); with COLO 205, > 100 µM (inactive); in the assay with SK-MEL-28, 10.7 µM (inactive); with HT-29, > 100 µM (inactive); in the assay with HCT-15 it was more than 100 µM. Besides, the GI50 is 17.3 µM (inactive) with PC-3; > 100 µM (inactive) in the assay on SR; 7.87 µM (inactive) with RXF 393; 37.8 µM (inactive) with OVCAR-8; 31.4 µM (inactive) with NCI-H522; 35.9 µM (inactive) with Malme-3M.

For `N#Cc1cnn2cc[nH]c12`, the GI50 in the assay with SF-268, with SN12C, with SF-295, with NCI-H23, with UACC-257 and with MDA-N was > 100 µM (inactive) each time. For the same compound, the GI50 in the assay with HCC 2998, in the assay on SNB-75, in the assay with HL-60, in the assay with COLO 205, in the assay with SK-MEL-28 and in the assay on HT-29 was > 100 µM (inactive) throughout. For the same compound, the GI50 is more than 100 µM with HCT-15; > 100 µM (inactive) with PC-3; > 100 µM (inactive) in the assay on SR; > 100 µM (inactive) with OVCAR-8; > 100 µM (inactive) in the assay on NCI-H522.

For the compound `O=c1[nH]c(=O)n(C2CC(O)C(CO)O2)cc1/N=N/NCCc1ccccc1` (stereo unspecified), the GI50 with SF-268, in the assay on SN12C, with SF-295, in the assay with NCI-H23, with UACC-257 and in the assay on MDA-N was > 100 µM (inactive) throughout. The GI50 was > 100 µM (inactive) in the assay with SNB-75; > 100 µM (inactive) in the assay on HL-60; > 100 µM (inactive) with COLO 205; > 100 µM (inactive) with SK-MEL-28; > 100 µM (inactive) with HT-29; more than 100 µM in the assay on HCT-15. Also, the GI50 with PC-3, in the assay on SR, in the assay with RXF 393, with OVCAR-8, in the assay on NCI-H522 and with Malme-3M was > 100 µM (inactive) in each case.

Take `Nc1[nH]c(=O)[nH]c(=O)c1Cc1cccc(Cl)c1`: the GI50 in the assay with SF-268 is 38.3 µM (inactive); in the assay on SN12C, > 100 µM (inactive); with SF-295 it was > 100 µM (inactive); in the assay with NCI-H23, > 100 µM (inactive); in the assay on UACC-257, 51.9 µM (inactive); in the assay on MDA-N, 41 µM (inactive). In addition, the GI50 in the assay with HOP-92 is 36.3 µM (inactive); in the assay on HCC 2998 it was 56 µM (inactive); in the assay on SNB-75, 58.7 µM (inactive); with COLO 205 it was > 100 µM (inactive); with SK-MEL-28, > 100 µM (inactive); in the assay on HT-29, > 100 µM (inactive). Besides, the GI50 in the assay with HCT-15 was 84.9 µM; in the assay with PC-3 it was 52.7 µM (inactive); with RXF 393 it was 87.3 µM (inactive); with OVCAR-8, > 100 µM (inactive); with NCI-H522 it was 88.9 µM (inactive); in the assay with Malme-3M, > 100 µM (inactive).

The record behind these values is ChEMBL document CHEMBL1201862, “PubChem BioAssay data set” (2004).
